In ChEMBL document CHEMBL2074284, “Transport of ochratoxin A by renal multispecific organic anion transporter 1” (J Pharmacol Exp Ther, 1999):

What was measured:
[1] = biological target: T1, Solute carrier family 22 member 6 (Rattus norvegicus, UniProt O35956); experiment: TP_TRANSPORTER: inhibition of Ochratoxin A uptake (OTA: 1 uM, Aspartame: 1000 uM) in Xenopus laevis oocytes; format: functional, cell-based; conditions: oocyte
T1 sequence (O35956 whole entry): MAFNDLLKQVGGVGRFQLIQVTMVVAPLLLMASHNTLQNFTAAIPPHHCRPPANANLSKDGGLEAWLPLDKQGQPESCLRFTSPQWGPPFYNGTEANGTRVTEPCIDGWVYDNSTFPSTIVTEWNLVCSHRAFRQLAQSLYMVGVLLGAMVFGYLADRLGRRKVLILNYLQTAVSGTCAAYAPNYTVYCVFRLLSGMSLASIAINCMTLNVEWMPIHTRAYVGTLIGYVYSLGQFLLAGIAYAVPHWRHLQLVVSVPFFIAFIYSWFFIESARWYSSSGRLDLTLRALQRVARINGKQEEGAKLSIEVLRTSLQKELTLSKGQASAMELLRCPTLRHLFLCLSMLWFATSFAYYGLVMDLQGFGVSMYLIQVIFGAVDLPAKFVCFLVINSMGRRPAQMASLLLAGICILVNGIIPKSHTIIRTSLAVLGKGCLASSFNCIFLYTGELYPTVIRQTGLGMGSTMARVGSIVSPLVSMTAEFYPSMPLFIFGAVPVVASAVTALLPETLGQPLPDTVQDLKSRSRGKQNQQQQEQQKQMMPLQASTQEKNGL

[2] = biological target: T1, Solute carrier family 22 member 6; experiment: TP_TRANSPORTER: inhibition of Ochratoxin A uptake (OTA: 1 uM, Citrinin: 200 uM) in Xenopus laevis oocytes; format: functional, cell-based; conditions: oocyte

| SMILES | Activity [1] | Activity [2] |
| --- | --- | --- |
| COC(=O)[C@H](Cc1ccccc1)NC(=O)[C@@H](N)CC(=O)O | is not an inhibitor [-] |  |
| CC1=C2C(=CO[C@H](C)[C@H]2C)C(O)=C(C(=O)O)C1=O [CITRININ] |  | inhibitor [(at a rough estimate) 20 % of control] |
